Assay results: patent US6087334A, “Anti-diabetic peptides” (Amylin Pharmaceuticals, Inc., priority 1998, dated 2000)
Read-outs that look alike come from different tables or passages of the source. Where no end group is shown, it is not given here.

Experiments:
[1] = system: gastric emptying in conscious rats; conditions: for Inhibition of gastric emptying (in words): conscious rat model
Description: Peptide compounds of the present invention may be evaluated for amylin agonist activity using the methods of measuring the rate of gastric emptying disclosed in, for example, Young et al., Diabetologia, 38(6):642-648 (1995). In a phenol red method, which is described in Example D below, conscious rats receive by gavage an a caloric gel containing methyl cellulose and a phenol red indicator. Twenty minutes after gavage, animals are anesthetized using halothane, the stomach exposed and clamped at the pyloric and lower esophageal sphincters, removed and opened into an alkaline solution. Stomach content may be derived from the intensity of the phenol red in the alkaline solution, measured by absorbance at a wavelength of 560 nm. In a tritiated glucose method, conscious rats are gavaged with tritiated glucose in water. The rats are gently restrained by the tail, the tip of which is anesthetized using lidocaine. Tritium in the plasma separated from tail blood is collected at various timepoints and detected in a beta counter. Test compounds are normally administered about one minute before gavage.
Phenol Red Gastric Emptying Assay:
Gastric emptying was measured using a modification (Plourde et al., Life Sci. 53:857-862 (1993)) of the original method of Scarpignato et al. (Arch. Int. Pharmacodyn. Ther. 246:286-295 (1980)). Conscious rats received by gavage. 1.5 mL of an a caloric gel containing 1.5% methyl cellulose (M-0262, Sigma Chemical Co., St. Louis, Mo.) and 0.05% phenol red indicator. Twenty minutes after gavage, rats were anesthetized using 5% halothane, the stomach exposed and clamped at the pyloric and lower esophageal sphincters using artery forceps, removed and opened into an alkaline solution which was made up to a fixed volume. Stomach content was derived from the intensity of the phenol red in the alkaline solution, measured by absorbance at a wavelength of 560 nm. […] In other experiments, particulate gastric contents were centrifuged to clear the solution for absorbance measurements. Where the diluted gastric contents remained turbid, the spectroscopic absorbance due to phenol red was derived as the difference between that present in alkaline versus acidified dilutent.
In separate experiments on 7 rats, the stomach and small intestine were both excised and opened into an alkaline solution. […] Percent gastric emptying contents remaining=(absorbance at 20 min)/(absorbance at 0 min). For those compounds for which ED50 data is presented, dose response curves for gastric emptying were fitted to a 4-parameter logistic model using a least-squares iterative routine (ALLFIT, v2.7, NIH, Bethesda, Md.) to derive ED50 s. Because ED50 is log-normally distributed, it is expressed ± standard error of the logarithm. Pairwise comparisons were performed using one-way analysis of variance and the Student-Newman-Keuls multiple comparisons test (Instat v2.0, GraphPad Software, San Diego, Calif.) using P<0.05 as the level of significance.
As a reference point for dose response studies, rat amylin (Bachem, Torrance, Calif.) dissolved in 0.15M saline, was administered as a 0.1 mL subcutaneous bolus in doses of 0, 0.01, 0.1, 1, 10 or 100 μg 5 minutes before gavage in Harlan Sprague Dawley (non-diabetic) rats fasted 20 hours and diabetic BB rats fasted 6 hours.

[2] = in vivo in rats, rabbits and humans with Paget's disease; cited from earlier work

In the case of “Adrenomedullin (YRQSMNNFQGLRSFGCRFGTCTVQKLAHQIYQFTDKDKDNVAPRSKISPQGY; ends and bridges not checked; cysteine pairing not given here; UniProt P35318 95-146, looked up)”, the “Inhibition of gastric emptying (in words)” value (“Inhibition … (in words)” below) ([1]; highest doses (100 μg)) is reported as “does not inhibit gastric emptying”.
For “amylin (KCNTATCATQRLANFLVHSSNNFGAILSSTNVGSNTY-NH2; not fully specified (bridges); cysteine pairing not given here; UniProt P10997 34-70, looked up)”, the “Lowering of plasma calcium” value [2] is given as “up to 20%” and the “Inhibition … (in words)” value ([1]; dose response) is given as “dose-dependently inhibit gastric emptying”.
For rat amylin, the “Inhibition … (in words)” value ([1]; dose response) was “dose-dependent suppression of gastric emptying”, the “ED50 for inhibition of gastric emptying” value ([1]; diabetic BB rats fasted 6 hours, subcutaneous bolus 5 minutes before gavage) was 2.2 µg and the “Suppression of gastric emptying” value ([1]; diabetic rats, 10 μg subcutaneous) was “complete”. The “Example D ED50” value ([1]; inhibition of gastric emptying, conscious rats, phenol red, 20 min after gavage) was 0.26 µg and the “Suppression of gastric emptying” value ([1]; normal HSD rats, 1 μg subcutaneous) was “complete”.
In the case of “rat calcitonin (CGNLSTCMLGTYTQDLNKFHTFPQTSIGVGAP; ends and bridges not checked; cysteine pairing not given here; UniProt P01257 85-116, looked up)”, the “Inhibition … (in words)” value ([1]; dose response) is reported as “dose-dependently inhibit gastric emptying”.
For salmon calcitonin, the “Inhibition … (in words)” value ([1]; dose response) was “dose-dependently inhibit gastric emptying”.
